# Reference: patent US20260242393A1, “Preparation Method for and Use of Dihydrothienopyrimidine Derivative” (Innovstone Therapeutics Limited, priority 2023, published 2026)
# pIC50: −log10 of the molar value. Like-named read-outs stand apart in the source and are kept apart here.
# Biological target: T1, PDE4B2 (Homo sapiens, UniProt Q07343)
# T1 construct: purchased BPS bioscience
# Assay: In vitro PDE4B2 enzyme inhibitory activity (AMP-Glo)
# Type: biochemical
# [1] = PDE4B2 enzyme inhibition, read-out: PDE4B2 IC50
# [2] = read-out: IC50 values of PDE4B2 enzyme inhibition
# T1 sequence (Q07343 1-564 isoform Q07343-2): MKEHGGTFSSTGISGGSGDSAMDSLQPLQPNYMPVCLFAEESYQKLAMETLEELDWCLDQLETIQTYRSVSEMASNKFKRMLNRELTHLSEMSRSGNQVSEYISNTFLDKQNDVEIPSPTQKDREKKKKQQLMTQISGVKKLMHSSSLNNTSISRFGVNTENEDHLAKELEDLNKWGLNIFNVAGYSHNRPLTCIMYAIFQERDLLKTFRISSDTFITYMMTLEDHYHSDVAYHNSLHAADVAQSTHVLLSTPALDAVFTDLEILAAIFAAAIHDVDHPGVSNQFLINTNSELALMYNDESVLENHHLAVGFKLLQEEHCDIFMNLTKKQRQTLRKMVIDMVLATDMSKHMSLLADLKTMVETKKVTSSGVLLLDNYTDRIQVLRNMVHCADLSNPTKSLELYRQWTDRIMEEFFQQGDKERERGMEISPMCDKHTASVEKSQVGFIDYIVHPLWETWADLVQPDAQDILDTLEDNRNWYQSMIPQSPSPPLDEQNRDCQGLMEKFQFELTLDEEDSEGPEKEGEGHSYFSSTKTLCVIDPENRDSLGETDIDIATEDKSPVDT
pIC50 [1],pIC50 [2],SMILES
≥ 8.70,> 9.00,"[2H]C([2H])([2H])OC1(c2ccc(Cl)cc2)CN(c2nc3c(c(NC4CCOCC4)n2)[S+]([O-])CC3)C1 (racemic) [Compound 94, (R/S)-2-(3-(4-chlorophenyl)-3-(methoxy-d3)azetidin-1-yl)-4-((tetrahydro-2H-pyran-4-yl)amino)-6,7-dihydrothieno[3,2-d]pyrimidine 5-oxide]"
≥ 8.70,–,"CNc1ccc(C2(OC)CN(c3nc4c(c(NC5(CO)CCC5)n3)[S+]([O-])CC4)C2)cc1 (racemic) [Compound 112, (R/S)-4-((1-(hydroxymethyl)cyclobutyl)amino)-2-(3-methoxy-3-(4-(methylamino)phenyl)azetidin-1-yl)-6,7-dihydrothieno[3,2-d]pyrimidine 5-oxide]"
8.30 to 8.70,–,"[O-][S+]1CCc2nc(N3CC(O)(c4ccc(Cl)cc4)C3)nc(NC3(CO)CCC3)c21 (racemic) [Compound 1, (R/S)-2-(3-(4-chlorophenyl)-3-hydroxyazetidin-1-yl)-4-((1-(hydroxymethyl)cyclobutyl)amino)-6,7-dihydrothieno[3,2-d]pyrimidine 5-oxide]"
≥ 8.70,> 9.00,"COC1(c2ccc(Cl)c(F)c2)CN(c2nc3c(c(NC4CCOCC4)n2)[S+]([O-])CC3)C1 (racemic) [Compound 86, (R/S)-2-(3-(4-chloro-3-fluorophenyl)-3-methoxyazetidin-1-yl)-4-((tetrahydro-2H-pyran-4-yl)amino)-6,7-dihydrothieno[3,2-d]pyrimidine 5-oxide]"
8.30 to 8.70,–,"COc1ccc(C2(O)CN(c3nc4c(c(Nc5ccc(CC(=O)O)cc5)n3)[S+]([O-])CC4)C2)cc1Cl (racemic) [Compound 8, (R/S)-2-(4-((2-(3-(3-chloro-4-methoxyphenyl)-3-hydroxyazetidin-1-yl)-5-oxido-6,7-dihydrothieno[3,2-d]pyrimidin-4-yl)amino)phenyl)acetic acid]"
8.30 to 8.70,–,"[O-][S+]1CCc2nc(N3Cc4ccc(C(F)F)cc4C3)nc(NC3(CO)CCC3)c21 (racemic) [Compound 91, (R/S)-2-(5-(difluoromethyl)isoindolin-2-yl)-4-((1-(hydroxymethyl)cyclobutyl)amino)-6,7-dihydrothieno[3,2-d]pyrimidine 5-oxide]"
8.30 to 8.70,–,"N#Cc1ccc2c(c1)CN(c1nc3c(c(NC4(CO)CCC4)n1)[S+]([O-])CC3)C2 (racemic) [Compound 27, (R/S)-2-(4-((1-(hydroxymethyl)cyclobutyl)amino)-5-oxido-6,7-dihydrothieno[3,2-d]pyrimidin-2-yl)isoindoline-5-carbonitrile]"
8.30 to 8.70,–,"CS(=O)(=O)Nc1ccc2c(c1)CN(c1nc3c(c(NC4(CO)CCC4)n1)[S+]([O-])CC3)C2 (racemic) [Compound 31, (R/S)—N-(2-(4-((1-(hydroxymethyl)cyclobutyl)amino)-5-oxido-6,7-dihydrothieno[3,2-d]pyrimidin-2-yl)isoindolin-5-yl)methanesulfonamide]"
8.30 to 8.70,–,"COc1ccc2c(c1Cl)CN(c1nc3c(c(NC4(CO)CCC4)n1)[S+]([O-])CC3)C2 (racemic) [Compound 35, (R/S)-2-(4-chloro-5-methoxyisoindolin-2-yl)-4-((1-(hydroxymethyl)cyclobutyl)amino)-6,7-dihydrothieno[3,2-d]pyrimidine 5-oxide]"
≥ 8.70,> 9.00,"COC1(c2ccc(Cl)c(F)c2)CN(c2nc3c(c(NC4(CO)CCC4)n2)[S+]([O-])CC3)C1 (racemic) [Compound 82, (R/S)-2-(3-(4-chloro-3-fluorophenyl)-3-methoxyazetidin-1-yl)-4-((1-(hydroxymethyl)cyclobutyl)amino)-6,7-dihydrothieno[3,2-d]pyrimidine 5-oxide]"
8.30 to 8.70,–,"COc1cc(C2(O)CN(c3nc4c(c(NC5CCOCC5)n3)[S+]([O-])CC4)C2)ccc1Cl (racemic) [Compound 81, (R/S)-2-(3-(4-chloro-3-methoxyphenyl)-3-hydroxyazetidin-1-yl)-4-((tetrahydro-2H-pyran-4-yl)amino)-6,7-dihydrothieno[3,2-d]pyrimidine 5-oxide]"
≥ 8.70,–,"[O-][S+]1CCc2nc(N3Cc4ccc(Cl)cc4C3)nc(NC3CCOCC3)c21 (racemic) [Compound 85, (R/S)-2-(5-chloroisoindolin-2-yl)-4-((tetrahydro-2H-pyran-4-yl)amino)-6,7-dihydrothieno[3,2-d]pyrimidine 5-oxide]"
8.30 to 8.70,–,"COc1ccc2c(c1)CN(c1nc3c(c(NC4(CO)CCC4)n1)[S+]([O-])CC3)C2 (racemic) [Compound 26, (R/S)-4-((1-(hydroxymethyl)cyclobutyl)amino)-2-(5-methoxyisoindolin-2-yl)-6,7-dihydrothieno[3,2-d]pyrimidine 5-oxide]"
≥ 8.70,> 9.00,"COC1(c2ccc(Cl)cc2)CN(c2nc3c(c(NC4(CO)CCC4)n2)[S+]([O-])CC3)C1 (racemic) [Compound 83, (R/S)-2-(3-(4-chlorophenyl)-3-methoxyazetidin-1-yl)-4-((1-(hydroxymethyl)cyclobutyl)amino)-6,7-dihydrothieno[3,2-d]pyrimidine 5-oxide]"
≥ 8.70,> 9.00,"COC1(c2ccc(Cl)cc2)CN(c2nc3c(c(NC4CCOCC4)n2)[S+]([O-])CC3)C1 (racemic) [Compound 88, (R/S)-2-(3-(4-chlorophenyl)-3-methoxyazetidin-1-yl)-4-((tetrahydro-2H-pyran-4-yl)amino)-6,7-dihydrothieno[3,2-d]pyrimidine 5-oxide]"
≥ 8.70,> 9.00,"COc1ccc(C2(OC)CN(c3nc4c(c(NC5(CO)CCC5)n3)[S+]([O-])CC4)C2)cc1 (racemic) [Compound 100, (R/S)-4-((1-(hydroxymethyl)cyclobutyl)amino)-2-(3-methoxy-3-(4-methoxyphenyl)azetidin-1-yl)-6,7-dihydrothieno[3,2-d]pyrimidine 5-oxide]"
≥ 8.70,> 9.00,"COc1ccc(C2(OC)CN(c3nc4c(c(NC5CCOCC5)n3)[S+]([O-])CC4)C2)cc1 (racemic) [Compound 108, (R/S)-2-(3-methoxy-3-(4-methoxyphenyl)azetidin-1-yl)-4-((tetrahydro-2H-pyran-4-yl)amino)-6,7-dihydrothieno[3,2-d]pyrimidine 5-oxide]"
8.30 to 8.70,–,"[O-][S+]1CCc2nc(N3CC=C(c4ccc(OC(F)F)cc4)C3)nc(NC3(CO)CCC3)c21 (racemic) [Compound 14, (R/S)-2-(3-(4-(difluoromethoxy)phenyl)-2,5-dihydro-1H-pyrrol-1-yl)-4-((1-(hydroxymethyl)cyclobutyl)amino)-6,7-dihydrothieno[3,2-d]pyrimidine 5-oxide]"
≥ 8.70,> 9.00,"COC1(c2ccc(N(C)C)cc2)CN(c2nc3c(c(NC4(CO)CCC4)n2)[S+]([O-])CC3)C1 (racemic) [Compound 109, (R/S)-2-(3-(4-(dimethylamino)phenyl)-3-methoxyazetidin-1-yl)-4-((1-(hydroxymethyl)cyclobutyl)amino)-6,7-dihydrothieno[3,2-d]pyrimidine 5-oxide]"
8.30 to 8.70,–,"[O-][S+]1CCc2nc(N3CC(O)(c4ccc(C(F)(F)F)cc4)C3)nc(NC3(CO)CCC3)c21 (racemic) [Compound 7, (R/S)-2-(3-hydroxy-3-(4-(trifluoromethyl)phenyl)azetidin-1-yl)-4-((1-(hydroxymethyl)cyclobutyl)amino)-6,7-dihydrothieno[3,2-d]pyrimidine 5-oxide]"
